# Patent publication US9738605B2, “Hybrid compounds of curcumin and melatonin as neuroprotectants for neurodegenerative disorders” (VIRGINIA COMMONWEALTH UNIVERSITY, priority 2013, dated 2017)
# “Also recorded” adds a separate entry of the source.
# Experiments:
# [1] = test system: intracellular oxidative stress in MC65 cells; experiment: ROS production assay in MC65 cells (DCFH-DA); type: cell-based; conditions: −TC, 48 h, DCFH-DA 25 μM, read-out: IC50 for suppression of intracellular oxidative stress
# Method: Cells were harvested, washed twice with cold PBS, then suspended in PBS and incubated with DCFH-DA (25 μM) in dark for 1 h. Fluorescence was analyzed by flow cytometry using a Millipore Guava® easyCyte flow cytometer.
# HT22 cells = experiment: Hydrogen peroxide toxicity assay in HT22 cells; type: cell-based, mouse; conditions: up to 0.3 μM, H2O2 500 μM, 24 h
# Method: HT22 cells were seeded in 96-well plates (4×10^3 cells/well) in growth medium and incubated for 24 h at 37° C. The medium was removed and compounds were added at the indicated concentrations in fresh growth medium, and the cells were incubated for another 1 h. H2O2 was then added at a final concentration of 500 μM, and the plates were then incubated for 24 h. Cell viability was assessed by MTT assay as previously described. Values were expressed as a percentage relative to the negative (H2O2-free) control.
# APP/PS1 transgenic mice = experiment: Oral treatment of APP/PS1 transgenic AD mouse model; type: in vivo; conditions: 50 mg/kg oral gavage, 12 weeks, 4 month-old APP/PS1 mice
# Method: FIG. 8A-D. AM24 (7) (50 mg/kg) oral gavage treatment in 4 month-old APP/PS1 transgenic animals during 12 weeks. Immunochemistry was performed using anti-Aβ 1-16 Clone 82E1 (1/1000, Mouse) in (A) control and (B) AM24-treated mice. Percent area of (C) Cortex (Cx) and (D) Cortex plus Hippocampus (CxHp) was measured. Statistical analysis was performed by T test *p<0.05. Experiment was assessed with APP/PS1-saline (n=4) and APP/PS1-AM24 (n=7) mice. Scale bar represents 500 μm.
# FIG. 9A-C. AM24 (7) (50 mg/kg) oral gavage treatment during 12 weeks in 4 month-old APP/PS1 transgenic animals. Immunochemistry was performed using anti-Aβ 1-16 Clone 82E1 (1/1000, Mouse) in (A) control and (B) AM24-treated mice. (C) Percent area Hippocampus (Hp) was measured. Experiment was assessed with APP/PS1-saline (n=4) and APP/PS1-AM24 (n=7) mice. […] Scale bar represents 200 μm.
# FIG. 10A-E. AM24 (7) (50 mg/kg) oral gavage treatment during 12 weeks in 4 month-old APP/PS1 transgenic animals. Immunochemistry in (A) control and (B) AM24-treated mice and (C) Western Blot were performed using anti-GFAP (1/250 and 1/2000 respectively, Rabbit). (D) Band Intensity was compared with saline treated APP/PS1 mice. (E) Percent area Hippocampus (Hp) was measured. Experiment was assessed with APP/PS1-saline (n=4) and APP/PS1-AM24 (n=7) mice. […] Scale bar represents 200 μm. […]
# FIG. 15A-B. AM24 (7) (50 mg/kg) oral gavage treatment in 4 month-old APP/PS1 transgenic animals during 12 weeks. (A) Western-blot was performed using anti-HNE (1/2000, Rabbit) stress marker. (B) Band Intensity was compared with saline treated APP/PS1 mice. Experiment was assessed with APP/PS1-saline (n=4) and APP/PS1-AM24 (n=7) mice. Statistical analysis was performed by T test ** p<0.01.
# FIG. 16A-B. AM24 (50 mg/kg) oral gavage treatment in 4 month-old APP/PS1 transgenic animals during 12 weeks. (A) Mitochondrial complex Western-blot was performed using OXPhOS cocktail antibody (1/2000, Mouse) to measure I, II, III and V Complex, and MTCO CIV for complex IV (1/2000, Mouse). (B) Band Intensity was compared with saline treated APP/PS1 mice. Experiment was assessed with APP/PS1-saline (n=4) and APP/PS1-AM24 (n=7) mice. Statistical analysis was performed by T test **p<0.01.
# APP/PS1 (amyloid precursor protein/presenilin-1) transgenic mice are a well known model for Alzheimer's disease. In this study, APP/PS1 mice were treated with 50 mg/kg of AM24 (compound 7) and the effects on cell type/morphology and the levels of several neuroinflammatory and stress markers was observed. […] However, there was no decrease in hippocampal plaques (FIG. 9A-C). Additionally, there was no change in the expression of glial fibrillary acid protein (GFAP), a neuroinflammation marker, in the hippocampus of AM24 treated animals (FIG. 10A-E).
# [2] = test system: amyloid-β oligomers (AβOs) in MC65 cells; experiment: Western blot (6E10) of AβOs production in MC65 cells; type: cell-based; conditions: MC65 cells after removal of TC, 6E10 antibody
# Method: MC65 cells (4×10^5 cells/mL) were treated with indicated compounds for 30 h and then were lysed by sonication in a Tricine buffer solution and boiled for 5 min. Protein samples were collected from the supernatant after centrifugation of the samples at 12,800×g for 5 min, and then quantified using the Bradford method. Equal amounts of protein (20.0 μg) were separated by SDS-PAGE on a gel (Bio-Rad) and transferred onto a PVDF membrane (Bio-Rad). The blots were blocked with 5% milk in TBS-Tween 20 (0.1%) solution at room temperature for 1 h and then probed with the 6E10 antibody overnight at 4° C. The blots were washed twice in TB S-Tween 20 for 15 min, and then incubated with a 1:1000 dilution of horseradish peroxidase-conjugated secondary antibody in a 5% milk/PBS-Tween 20 solution at room temperature for 1 h. After washing twice in TBS-Tween 20 for 15 min, the proteins were visualized by a Western Blot Chemiluminescence Reagent (Thermo Fischer Scientific, Waltham, Mass.). The blots were also probed with antibodies against α-tubulin to ensure equal loading of proteins.
smiles,measurement,setting,value
"COc1ccc2[nH]cc(CCNC(=O)CC(=O)CCc3ccc(O)cc3)c2c1 [Compound 7, 5-(4-hydroxy-phenyl)-3-oxo-pentanoic acid [2-(5-methoxy-1H-indol-3-yl)-ethyl]-amide]",IC50,[1],~68 nM
same,protection from H2O2-induced cytotoxicity,HT22 cells,no protection
same,NADH Dehydrogenase-Complex I (mitochondrial complex Western blot),APP/PS1 transgenic mice,powerful increase
same,cortical and cortex/hippocampal amyloid plaques,APP/PS1 transgenic mice,significant decrease
same,expression of 8-Hydroxyguanosine (80HG) in the hippocampus,APP/PS1 transgenic mice,significant decrease
same,expression of heme-oxygenase-1 (HO-1),APP/PS1 transgenic mice,no change
same,"total number and type of glial cells (hippocampus, IBA-1)",APP/PS1 transgenic mice,remained constant
same,expression of 4-hydroxy-2-nonenal (HNE),APP/PS1 transgenic mice; vs saline,significant decrease
same,expression of GFAP in the hippocampus,APP/PS1 transgenic mice; listed as AM24,no change; also recorded: no differences were detected
same,hippocampal amyloid plaques,APP/PS1 transgenic mice; listed as AM24,no decrease; also recorded: no differences were detected
same,"effect on the production of AβOs (tetramers, pentamers, heptamers)",[2],moderate inhibitory effects; also recorded: dose-dependently suppressed
